Experimental data from article PMC5218480 (PLoS ONE, 2017).

System: MV-4-11 cells
Assay: Gene expression microarray analysis (Affymetrix PrimeView) and GSEA
Type: cell-based, human
Parameters: RFU PODN (11730768_x_at) / Fold change /veh PODN (11730768_x_at) / RFU LINC00158 (11744669_a_at) / Fold change /veh LINC00158 (11744669_a_at) / RFU DUSP10 (11751237_a_at) / Fold change /veh DUSP10 (11751237_a_at) / RFU ID3 (11757404_x_at) / Fold change /veh ID3 (11757404_x_at) / RFU PLEKHG5 (11737974_s_at) / Fold change /veh PLEKHG5 (11737974_s_at) / RFU LRRC4B (11730491_at) / Fold change /veh LRRC4B (11730491_at) / RFU GIMAP4 (11747438_a_at) / Fold change /veh GIMAP4 (11747438_a_at) / RFU KRT8 (11758183_x_at) / Fold change /veh KRT8 (11758183_x_at) / RFU CNN1 (11734310_a_at) / Fold change /veh CNN1 (11734310_a_at) / RFU VPS37D (11726825_at) / Fold change /veh VPS37D (11726825_at) / RFU C10orf10 (11716522_x_at) / Fold change /veh C10orf10 (11716522_x_at) / RFU KIR2DL2 /// KIR2DL4 /// KIR2DL5A /// KIR2DL5B /// KIR2DS1 /// KIR2DS2 /// KIR2DS3 /// KIR2DS4 /// KIR3DL3 /// KIR3DL3 /// KIR3DS1 (11738374_at) / Fold change /veh KIR2DL2 /// KIR2DL4 /// KIR2DL5A /// KIR2DL5B /// KIR2DS1 /// KIR2DS2 /// KIR2DS3 /// KIR2DS4 /// KIR3DL3 /// KIR3DL3 /// KIR3DS1 (11738374_at) / RFU C1QL1 (11718748_at) / Fold change /veh C1QL1 (11718748_at) / RFU TMPRSS4 (11747572_a_at) / Fold change /veh TMPRSS4 (11747572_a_at) / RFU HAMP (11756126_x_at) / Fold change /veh HAMP (11756126_x_at) / RFU RNFT2 (11725882_a_at) / Fold change /veh RNFT2 (11725882_a_at) / RFU NR4A2 (11747474_a_at) / Fold change /veh NR4A2 (11747474_a_at) / RFU ABCC12 (11746883_a_at) / Fold change /veh ABCC12 (11746883_a_at) / RFU TMEM136 (11760407_x_at) / Fold change /veh TMEM136 (11760407_x_at) / RFU CLDN22 /// WWC2 (11732394_at) / Fold change /veh CLDN22 /// WWC2 (11732394_at) / RFU HLA-DPB1 (11760878_x_at) / Fold change /veh HLA-DPB1 (11760878_x_at) / RFU SPINT1 (11716480_a_at) / Fold change /veh SPINT1 (11716480_a_at) / RFU GAP43 (11754022_s_at) / Fold change /veh GAP43 (11754022_s_at) / RFU A4GNT (11735810_at) / Fold change /veh A4GNT (11735810_at) / RFU PRB3 (11715151_x_at) / Fold change /veh PRB3 (11715151_x_at) / RFU TUBB4B (11761932_at) / Fold change /veh TUBB4B (11761932_at) / RFU CAPN14 (11732068_a_at) / Fold change /veh CAPN14 (11732068_a_at) / RFU TMCC2 (11721928_a_at) / Fold change /veh TMCC2 (11721928_a_at) / RFU IRGQ (11745062_a_at) / Fold change /veh IRGQ (11745062_a_at) / RFU FAM174B (11720279_a_at) / Fold change /veh FAM174B (11720279_a_at) / RFU TMPRSS4 (11748680_a_at) / Fold change /veh TMPRSS4 (11748680_a_at) / RFU FAM212B (11763350_a_at) / Fold change /veh FAM212B (11763350_a_at) / RFU PLEKHG5 (11743358_a_at) / Fold change /veh PLEKHG5 (11743358_a_at) / RFU ZSCAN30 (11745921_a_at) / Fold change /veh ZSCAN30 (11745921_a_at) / RFU CMKLR1 (11741424_a_at) / Fold change /veh CMKLR1 (11741424_a_at) / RFU LOC101060620 /// MAPK8IP1 (11723275_at) / Fold change /veh LOC101060620 /// MAPK8IP1 (11723275_at) / RFU SPTSSB (11747773_x_at) / Fold change /veh SPTSSB (11747773_x_at) / RFU PRSS12 (11739890_at) / Fold change /veh PRSS12 (11739890_at) / RFU BIN1 (11741810_x_at) / Fold change /veh BIN1 (11741810_x_at) / RFU WNT11 (11732464_a_at) / Fold change /veh WNT11 (11732464_a_at) / RFU C10orf10 (11716521_a_at) / Fold change /veh C10orf10 (11716521_a_at) / RFU C5orf56 (11738089_at) / Fold change /veh C5orf56 (11738089_at) / RFU CYB561 (11721691_x_at) / Fold change /veh CYB561 (11721691_x_at) / RFU ANKRD19P (11752326_a_at) / Fold change /veh ANKRD19P (11752326_a_at) / RFU OR2T12 /// OR2T33 /// OR2T8 (11738714_s_at) / Fold change /veh OR2T12 /// OR2T33 /// OR2T8 (11738714_s_at) / RFU VCAN (11748164_a_at) / Fold change /veh VCAN (11748164_a_at) / RFU JSRP1 (11732532_at) / Fold change /veh JSRP1 (11732532_at) / RFU KRTAP10-11 (11738290_x_at) / Fold change /veh KRTAP10-11 (11738290_x_at) / RFU MYO3A (11730013_a_at) / Fold change /veh MYO3A (11730013_a_at) / RFU EBF3 (11725865_a_at) / Fold change /veh EBF3 (11725865_a_at) / RFU CAMK2N1 (11719241_x_at) / Fold change /veh CAMK2N1 (11719241_x_at) / RFU C5orf56 (11738088_a_at) / Fold change /veh C5orf56 (11738088_a_at) / RFU OLFML3 (11715873_a_at) / Fold change /veh OLFML3 (11715873_a_at) / RFU LOC100653217 /// NTM (11731650_a_at) / Fold change /veh LOC100653217 /// NTM (11731650_a_at) / RFU MAPK11 (11762145_a_at) / Fold change /veh MAPK11 (11762145_a_at) / RFU FIZ1 (11724087_x_at) / Fold change /veh FIZ1 (11724087_x_at) / RFU OASL (11726364_x_at) / Fold change /veh OASL (11726364_x_at) / RFU SOX15 (11748057_x_at) / Fold change /veh SOX15 (11748057_x_at) / RFU CD79A (11719716_a_at) / Fold change /veh CD79A (11719716_a_at) / RFU HIST1H1D (11736915_at) / Fold change /veh HIST1H1D (11736915_at) / RFU CASKIN2 (11723855_a_at) / Fold change /veh CASKIN2 (11723855_a_at) / RFU LOC730098 (11760151_x_at) / Fold change /veh LOC730098 (11760151_x_at) / RFU OR4N2 (11742367_at) / Fold change /veh OR4N2 (11742367_at) / RFU PRRT2 (11749266_a_at) / Fold change /veh PRRT2 (11749266_a_at) / RFU SNX32 (11753110_a_at) / Fold change /veh SNX32 (11753110_a_at) / RFU CDHR5 (11726645_a_at) / Fold change /veh CDHR5 (11726645_a_at) / RFU RCAN1 (11760418_a_at) / Fold change /veh RCAN1 (11760418_a_at) / RFU FAM167A (11723789_a_at) / Fold change /veh FAM167A (11723789_a_at) / RFU FAM26E (11764081_at) / Fold change /veh FAM26E (11764081_at) / RFU ISYNA1 (11749810_s_at) / Fold change /veh ISYNA1 (11749810_s_at) / RFU ACY1 (11761880_at) / Fold change /veh ACY1 (11761880_at) / RFU 11764098_at / Fold change /veh 11764098_at / RFU SAMD14 (11745864_x_at) / Fold change /veh SAMD14 (11745864_x_at) / RFU NPB (11741838_a_at) / Fold change /veh NPB (11741838_a_at) / RFU TMPRSS6 (11731388_a_at) / Fold change /veh TMPRSS6 (11731388_a_at) / RFU KRTAP10-2 (11738614_at) / Fold change /veh KRTAP10-2 (11738614_at) / RFU ARHGAP8 /// PRR5-ARHGAP8 (11727945_x_at) / Fold change /veh ARHGAP8 /// PRR5-ARHGAP8 (11727945_x_at) / RFU KRTAP5-7 /// NADSYN1 (11734609_at) / Fold change /veh KRTAP5-7 /// NADSYN1 (11734609_at) / RFU RASL12 (11751679_a_at) / Fold change /veh RASL12 (11751679_a_at) / RFU CDKN2B (11736163_a_at) / Fold change /veh CDKN2B (11736163_a_at) / RFU PRF1 (11729649_at) / Fold change /veh PRF1 (11729649_at) / RFU, ZNF638 /// ZNF638-IT1 / Fold change vs veh, ZNF638 /// ZNF638-IT1 / RFU, PANK3 / Fold change vs veh, PANK3 / RFU, SH3YL1 / Fold change vs veh, SH3YL1 / RFU, ZEB2 / Fold change vs veh, ZEB2 / RFU, NRIP1 / Fold change vs veh, NRIP1 / RFU, PTTG1IP / Fold change vs veh, PTTG1IP / RFU, CAPN2 / Fold change vs veh, CAPN2 / RFU, MED14 / Fold change vs veh, MED14 / RFU, SNORA58 / Fold change vs veh, SNORA58 / RFU, C1orf63 / Fold change vs veh, C1orf63 / RFU, LRRFIP1 / Fold change vs veh, LRRFIP1 / RFU, NDUFAF7 / Fold change vs veh, NDUFAF7 / RFU, SLC12A2 / Fold change vs veh, SLC12A2 / RFU, IBTK / Fold change vs veh, IBTK / RFU, ESF1 / Fold change vs veh, ESF1 / Fold change vs veh, TMEM50B / RFU, TAOK1 / Fold change vs veh, TAOK1 / RFU, ACBD3 / Fold change vs veh, ACBD3 / RFU, TMA16 / Fold change vs veh, TMA16 / RFU, RWDD3 / Fold change vs veh, RWDD3 / RFU, BCAT1 / Fold change vs veh, BCAT1 / RFU, EDEM3 / Fold change vs veh, EDEM3 / RFU, TMEM33 / Fold change vs veh, TMEM33 / RFU, WDR75 / Fold change vs veh, WDR75 / RFU, AHCTF1 / Fold change vs veh, AHCTF1 / RFU, TFRC / Fold change vs veh, TFRC / RFU, ZDHHC17 / Fold change vs veh, ZDHHC17 / RFU, NOM1 / Fold change vs veh, NOM1 / RFU, ARL8B / Fold change vs veh, ARL8B / RFU, ZBTB11 / Fold change vs veh, ZBTB11 / RFU, TAMM41 / Fold change vs veh, TAMM41 / RFU, KIAA1704 /// LOC100996395 / Fold change vs veh, KIAA1704 /// LOC100996395 / RFU, ING1 / Fold change vs veh, ING1 / RFU, TRMT61B / Fold change vs veh, TRMT61B / RFU, FUBP3 / Fold change vs veh, FUBP3 / RFU, TP53 / Fold change vs veh, TP53 / RFU, TNKS2 / Fold change vs veh, TNKS2 / RFU, ZFP14 / Fold change vs veh, ZFP14 / RFU, ACTR2 / Fold change vs veh, ACTR2 / RFU, PPP3R1 / Fold change vs veh, PPP3R1 / RFU, PIK3R1 / Fold change vs veh, PIK3R1 / RFU, HNRNPA1 / Fold change vs veh, HNRNPA1 / RFU, RNF170 / Fold change vs veh, RNF170 / RFU, ZNF28 / Fold change vs veh, ZNF28 / RFU, RNGTT / Fold change vs veh, RNGTT / RFU, OGT / Fold change vs veh, OGT / RFU, BRD1 / Fold change vs veh, BRD1 / RFU, MARS / Fold change vs veh, MARS / RFU, ZNF655 / Fold change vs veh, ZNF655 / RFU, FAHD1 / Fold change vs veh, FAHD1 / RFU, BDP1 / Fold change vs veh, BDP1 / RFU, LRRCC1 / Fold change vs veh, LRRCC1 / RFU, ARID1A / Fold change vs veh, ARID1A / RFU, ZNF146 / Fold change vs veh, ZNF146 / RFU, ZNF330 / Fold change vs veh, ZNF330 / RFU, GPN3 / Fold change vs veh, GPN3 / RFU, C9orf123 / Fold change vs veh, C9orf123 / RFU, N4BP2L2 / Fold change vs veh, N4BP2L2 / RFU, ARFIP1 / Fold change vs veh, ARFIP1 / RFU, FAM179B / Fold change vs veh, FAM179B / RFU, BCL10 / Fold change vs veh, BCL10 / RFU, UHRF1BP1L / Fold change vs veh, UHRF1BP1L / RFU, BET1 / Fold change vs veh, BET1 / RFU, CNOT2 / Fold change vs veh, CNOT2 / RFU, ZNF268 / Fold change vs veh, ZNF268 / Fold change vs veh, ZNF507 / RFU, DGCR2 / Fold change vs veh, DGCR2 / RFU, WDSUB1 / Fold change vs veh, WDSUB1 / Fold change vs veh, HSP90B1 /// MIR3652 / RFU, ADSS / Fold change vs veh, ADSS / RFU, GK / Fold change vs veh, GK / RFU, ZNF148 / Fold change vs veh, ZNF148 / RFU, TAF9 / Fold change vs veh, TAF9 / RFU, SLC1A5 / Fold change vs veh, SLC1A5 / RFU, SLMO2 / Fold change vs veh, SLMO2 / RFU, ABCC4 / Fold change vs veh, ABCC4 / RFU, LOC101060439 /// RAP1B / Fold change vs veh, LOC101060439 /// RAP1B / RFU, RFX7 / Fold change vs veh, RFX7 / RFU, GTPBP10 / Fold change vs veh, GTPBP10 / RFU, CNEP1R1 / Fold change vs veh, CNEP1R1 / RFU, BIVM-ERCC5 /// ERCC5 / Fold change vs veh, BIVM-ERCC5 /// ERCC5 / RFU, ILF3 / Fold change vs veh, ILF3 / RFU 11762660_at / Fold change /veh 11762660_at / RFU VCAN (11757783_s_at) / Fold change /veh VCAN (11757783_s_at) / RFU DDX43 (11728927_at) / Fold change /veh DDX43 (11728927_at) / RFU KRT8 (11758188_x_at) / Fold change /veh KRT8 (11758188_x_at) / RFU NKD1 (11759106_at) / Fold change /veh NKD1 (11759106_at) / RFU SRD5A1 (11742802_a_at) / Fold change /veh SRD5A1 (11742802_a_at) / RFU TPSAB1 /// TPSB2 (11721975_s_at) / Fold change /veh TPSAB1 /// TPSB2 (11721975_s_at) / RFU GSTM3 (11746129_a_at) / Fold change /veh GSTM3 (11746129_a_at) / RFU IL23R (11737362_x_at) / Fold change /veh IL23R (11737362_x_at) / RFU TMEM51 (11727254_a_at) / Fold change /veh TMEM51 (11727254_a_at) / RFU PIWIL2 (11732686_x_at) / Fold change /veh PIWIL2 (11732686_x_at) / RFU ORM1 (11744905_x_at) / Fold change /veh ORM1 (11744905_x_at) / RFU CCDC152 (11743942_at) / Fold change /veh CCDC152 (11743942_at) / RFU ECM1 (11717891_a_at) / Fold change /veh ECM1 (11717891_a_at) / RFU IL23R (11748794_a_at) / Fold change /veh IL23R (11748794_a_at) / RFU TNFAIP8L3 (11732012_x_at) / Fold change /veh TNFAIP8L3 (11732012_x_at) / RFU MBOAT4 (11741988_at) / Fold change /veh MBOAT4 (11741988_at) / RFU 11764193_at / Fold change /veh 11764193_at / RFU TMEM53 (11763286_at) / Fold change /veh TMEM53 (11763286_at) / RFU MAGEB2 (11727129_at) / Fold change /veh MAGEB2 (11727129_at) / RFU TMEM200A (11744735_a_at) / Fold change /veh TMEM200A (11744735_a_at) / RFU CCDC152 (11751479_a_at) / Fold change /veh CCDC152 (11751479_a_at) / RFU FAM211A (11726209_a_at) / Fold change /veh FAM211A (11726209_a_at) / RFU RGS16 (11746705_a_at) / Fold change /veh RGS16 (11746705_a_at) / RFU VCAN (11755009_s_at) / Fold change /veh VCAN (11755009_s_at) / RFU RHOB (11743442_s_at) / Fold change /veh RHOB (11743442_s_at) / RFU RGS16 (11720943_a_at) / Fold change /veh RGS16 (11720943_a_at) / RFU RGS16 (11720944_at) / Fold change /veh RGS16 (11720944_at) / RFU, VPS4B / Fold change vs veh, VPS4B / RFU, CREB1 / Fold change vs veh, CREB1 / RFU, DNAJC13 / Fold change vs veh, DNAJC13 / RFU, GNAQ / Fold change vs veh, GNAQ / RFU, CDK5R1 / Fold change vs veh, CDK5R1 / RFU, ZRANB3 / Fold change vs veh, ZRANB3 / RFU, CUL4A / Fold change vs veh, CUL4A / RFU, CCNY / Fold change vs veh, CCNY / RFU, UFL1 / Fold change vs veh, UFL1 / RFU, COG3 / Fold change vs veh, COG3 / RFU, DIAPH2 / Fold change vs veh, DIAPH2 / RFU, SKA2 / Fold change vs veh, SKA2 / RFU, AFF3 / Fold change vs veh, AFF3 / RFU, LMF1 / Fold change vs veh, LMF1 / RFU, IPO11 / Fold change vs veh, IPO11 / RFU, DFFB / Fold change vs veh, DFFB / RFU, FOXP1 / Fold change vs veh, FOXP1 / RFU, CARD8 / Fold change vs veh, CARD8 / RFU, STRN3 / Fold change vs veh, STRN3 / RFU, ADK / Fold change vs veh, ADK / RFU, RASSF2 / Fold change vs veh, RASSF2 / RFU, WIPF1 / Fold change vs veh, WIPF1 / RFU, LARP1B / Fold change vs veh, LARP1B / RFU, RASA1 / Fold change vs veh, RASA1 / RFU, RB1 / Fold change vs veh, RB1 / RFU, PPFIA1 / Fold change vs veh, PPFIA1 / RFU, MAT2A / Fold change vs veh, MAT2A / RFU, CCT5 / Fold change vs veh, CCT5 / RFU, WDR92 / Fold change vs veh, WDR92 / RFU, CUX1 / Fold change vs veh, CUX1 / RFU, TTC7A / Fold change vs veh, TTC7A / RFU, TMEM135 / Fold change vs veh, TMEM135 / RFU, DEPTOR / Fold change vs veh, DEPTOR / RFU, CPM / Fold change vs veh, CPM / RFU, DNAJB6 / Fold change vs veh, DNAJB6 / RFU, CACNA2D3 / Fold change vs veh, CACNA2D3 / RFU, DTX4 / Fold change vs veh, DTX4 / RFU, TFCP2 / Fold change vs veh, TFCP2 / RFU, GMCL1 /// GMCL1P1 / Fold change vs veh, GMCL1 /// GMCL1P1 / RFU, AEBP2 / Fold change vs veh, AEBP2 / RFU, SNHG1 /// SNORD22 /// SNORD25 /// SNORD26 /// SNORD27 /// SNORD28 /// SNORD29 /// SNORD31 / Fold change vs veh, SNHG1 /// SNORD22 /// SNORD25 /// SNORD26 /// SNORD27 /// SNORD28 /// SNORD29 /// SNORD31 / Fold change (Aza/veh), C12orf56 (ProbeSet 11735607_a_at) / Fold change (ACY-1035/veh), C12orf56 (ProbeSet 11735607_a_at) / Fold change (Aza/veh), FGFR1OP (ProbeSet 11751329_s_at) / Fold change (ACY-1035/veh), FGFR1OP (ProbeSet 11751329_s_at) / Fold change (Aza/veh), VPS36 (ProbeSet 11739960_a_at) / Fold change (ACY-1035/veh), VPS36 (ProbeSet 11739960_a_at) / RFU SYPL1 (11715823_x_at) / Fold change /veh SYPL1 (11715823_x_at) / RFU IGFBP7 (11715501_s_at) / Fold change /veh IGFBP7 (11715501_s_at) / RFU REEP3 (11722064_at) / Fold change /veh REEP3 (11722064_at) / RFU IGLL1 (11728026_x_at) / Fold change /veh IGLL1 (11728026_x_at): dose or concentration left out as unconfirmed
Details: ProbeSet 11747889_x_at; LIST B

Q: `Nc1ncn([C@@H]2O[C@H](CO)[C@@H](O)[C@H]2O)c(=O)n1` [azacitidine] was tested. Which “Fold change vs veh, SH3YL1” value did it give?
A: 0.87
